# Test results reported in US20230041980A1, “METHOD OF PROTECTING A RESPIRATORY TRACT OR A LUNG FROM DAMAGE, METHOD OF PROTECTING A LUNG FROM PRESSURE DAMAGE INDUCED BY A VENTILATOR, METHOD OF SUPPRESSING SPREAD OF INFECTION WITH VIRUSES OR BACTERIA THAT CAUSE PNEUMONIA IN PULMONARY BRONCHIAL EPITHELIAL CELLS OR ALVEOLAR EPITHELIAL CELLS, AND …” (NEXT21 KABUSHIKI KAISHA, priority 2020, published 2023).
# Experiments:
# Asthma model mice [1] = assay: Airway resistance and compliance of OVA asthma model mice; type: in vivo, BALB/c mice; details: versus amount of muscarine receptor stimulant, inhalation, compared with OVA/OVA; for airway resistance: FIG. 2A; for compliance: FIG. 2B
# Description: (§1) Asthma model mice were produced using BALB/c mice (8 to 10 weeks old) and ovalbumin (OVA) serving as an antigen, and examinations were conducted by administering trehalose by inhalation. On the first day and the fourteenth day, a physiological saline solution or OVA was intraperitoneally administered. 20 micrograms of OVA was administered to one mouse using aluminum hydroxide as an adjuvant. From the twenty-seventh day to the thirty-first day, 10% trehalose or distilled water was administered by inhalation for 20 minutes every day. Moreover, from the twenty-eighth day to the thirtieth day, a physiological saline solution or 1% OVA was administered by inhalation for 20 minutes, 1 to 1.5 hours after the above-mentioned inhalation. On the thirty-second day, evaluation was conducted using an assay system for evaluating allergic airway inflammation and hyperresponsive airway.
# The airway resistance and the compliance of the model mice of Example 1 were measured. […] On the other hand, FIGS. 2A and 2B also show the results of the experiment in which lactose was used instead of trehalose (OVA/OVA+Lac).
# Asthma model mice [2] = assay: Numbers of inflammation-inducing cells in bronchoalveolar lavage fluid; type: in vivo, BALB/c mice; details: inhalation; compared with OVA/OVA; FIG. 4
# Description: as §1, with “airway. Bronchoalveolar lavage was performed on the model mice of Example 1, and the numbers of various cells obtained through the bronchoalveolar lavage were compared and examined. It should be noted that, in this example, 0.5 mL of a physiological saline solution containing 50 μg of ovalbumin (OVA) and 1 mg of aluminum hydroxide gel serving as an adjuvant was administered to OVA-administration mice (OVA/OVA) […]. […]” for “airway.”
# TNF-α [3] = assay: TNF-α induced by homogenized cell lysate (ELISA); type: cell-based; details: RAW264.7 cells
# TNF-α [4] = assay: TNF-α induced by heat-shocked dead cell solution (ELISA); type: cell-based; details: 10% aqueous trehalose vs saline added to cell solution (53° C. 10 minutes); RAW264.7 cells, 8 hours; FIG. 7E
# Description: Moreover, RAW264.7 cells cultured in a 225-cm^2 flask were collected, and heat shock was applied to the cells at 53° C. for 10 minutes. Then, the cells were left to stand at 37° C. for 5 hours to induce cell death, and the resulting solution was used as a cell solution. Thereafter, a physiological saline solution (saline) or a 10% aqueous solution of trehalose (trehalose) was added to the cell solution, and the resulting solution was treated on ice for 30 minutes. The above-mentioned cell solution was added to RAW264.7 cells that were being cultured in 6 wells, and the cells were cultured for another 8 hours. Then, TNF-α was measured using ELISA (manufactured by R&D Systems).
# In this test, the cell solution including dead cells induced by heat shock was used as a model of cell disruption caused by a burn.
# IL-1α = IL-1α induced by homogenized cell lysate (ELISA); type: cell-based; details: lysate homogenized in 10% aqueous trehalose vs saline; RAW264.7 cells, 8 hours; FIG. 7B
# TGF-β1 = TGF-β1 induced by homogenized cell lysate (ELISA); type: cell-based; details: lysate homogenized in 10% aqueous trehalose vs saline; RAW264.7 cells, 8 hours; acid-treated medium; FIG. 7D
# Description: Moreover, RAW264.7 cells cultured in a 225-cm^2 flask were homogenized in a physiological saline solution (saline) or a 10% aqueous solution of trehalose (trehalose) using a homogenizer, and cell lysate was thus prepared. The above-mentioned cell lysate was added to RAW264.7 cells that were being cultured in 6 wells, and the cells were cultured for another 8 hours. Then, the culture medium was collected. The culture medium was treated with acid, and then TGF-β1 in the culture medium was measured using ELISA (manufactured by R&D Systems).
# In the above-mentioned tests, the cell lysate obtained through homogenization using a homogenizer was used as a model of cell disruption caused by damage (including a surgical operation).
# [5] = tested on: RAW264.7 cells (macrophages); assay: Lipid peroxides (LPO) in cells treated with hemolysate; type: cell-based; details: 5% trehalose, 10% hemolysate for 3 hours, FIG. 6A
# Description: (§2) Suppression of PLA2 activation caused by applying hydrogen peroxide stimulus to RAW264.7 cells (macrophages) was measured using [^3H]-AA release assay. FIGS. 6A and 6B show the measurement results showing the influence of trehalose on hemolysate or oxygen free radicals. FIGS. 6A and 6B show the measurement results in the case where a culture medium or hemolysate contains a physiological saline solution (Sal), 5% trehalose (Ire), or 5% maltose (Mal). […] In this experiment, RAW264.7 cells were treated with 10% hemolysate for 3 hours. The hemolysate was prepared as a supernatant by suspending erythrocytes of a Wistar rat in a saline solution, an aqueous solution of trehalose, or an aqueous solution of maltose, sonicating the resulting suspension, and then centrifuging the suspension. The LPO level was measured through a colorimetric analysis using a divalent iron molecule. […] In this experiment, RAW264.7 cells were labeled with [3H] arachidonic acid overnight and then treated with hydrogen peroxide for 3 hours. The level of released arachidonic acid was quantified by measuring the radioactivity of the collected culture medium.
# IgE antibody = IgE antibody levels in serum of OVA asthma model mice; type: in vivo, BALB/c mice; details: 10% trehalose by inhalation 20 min daily, day 27-31, OVA/OVA+Treh vs OVA/OVA, P<0.05
# Description: as §1, with “airway. FIGS. 1A and 1B show the measurement results of the IgE antibodylevels in the serum. […] Suppressing the production of IgE antibodies makes it possible to suppress an increase in the severity of pulmonary tissue lesion caused by cytokine storm, which is an overreaction of the immune system caused by chemical mediators from mast cells. […]” for “airway.”
# IL-13 = IL-13 level in bronchoalveolar lavage fluid (ELISA); type: in vivo, BALB/c mice; details: OVA/OVA+Treh vs OVA/OVA, FIG. 5C
# Description: as §1, with “airway. Bronchoalveolar lavage was performed on the model mice of Example 1, and the numbers of various cells obtained through the bronchoalveolar lavage were compared and examined. […] The cytokine levels in the bronchoalveolar lavage fluids obtained in Example 4 were measured using an ELISA measurement kit. […] It should be noted that interferon (IFN-γ) was not detected from any of the groups. […]” for “airway.”
# [6] = tested on: oral epithelial cell line (Ca9-22); assay: LIVE/DEAD assay after drying stimulus; type: cell-based; details: 7.5% trehalose pretreatment 15 minutes, dried 7 minutes, FIG. 8A
# prostaglandin E2 = assay: Prostaglandin E2 induced by homogenized cell lysate (EIA); type: cell-based; details: lysate homogenized in 10% aqueous trehalose vs saline; RAW264.7 cells, 8 hours; FIG. 7C
# PLA2 = assay: Released [3H]-arachidonic acid after drying stimulus (PLA2 activation); type: cell-based; details: 7.5% trehalose pretreatment 15 minutes, dried 7 minutes; Ca9-22; FIG. 8B
# Description: The oral epithelial cell line (Ca9-22) maintained in DMEM-10% FBS was treated with [^3H]-arachidonic acid overnight. Pretreatment with a physiological saline solution (Sal), 7.5% trehalose (Tre), or 7.5% maltose (Mal) was conducted for 15 minutes, and then the cells were dried for 7 minutes. Subsequently, a culture medium was added, and then the cells were cultured for 1 hour.
# [7] = tested on: alveolar epithelial cells; assay: Pulmonary tissue sections, H.E. and PAS staining, asthma model mice; type: in vivo, BALB/c mice; details: primary inhalation of trehalose, FIGS. 3A, 3B
# Description: as §1, with “airway. Pulmonary tissue pathological sections were produced from the model mice of Example 1, and the diseases state was observed through hematoxylin-eosin (H.E.) staining and periodic acid-Schiff (PAS) staining. FIGS. 3A and 3B show the results of H.E. staining and the results of PAS staining, respectively.” for “airway.”
# IL-4 = IL-4 level in bronchoalveolar lavage fluid (ELISA); type: in vivo, BALB/c mice; details: OVA/OVA+Treh vs OVA/OVA, FIG. 5A
# Description: as §1, with “airway. Bronchoalveolar lavage was performed on the model mice of Example 1, and the numbers of various cells obtained through the bronchoalveolar lavage were compared and examined. […] The cytokine levels in the bronchoalveolar lavage fluids obtained in Example 4 were measured using an ELISA measurement kit. […] It should be noted that interferon (IFN-γ) was not detected from any of the groups. […]” for “airway.”
# IL-5 = IL-5 level in bronchoalveolar lavage fluid (ELISA); type: in vivo, BALB/c mice; details: OVA/OVA+Treh vs OVA/OVA, FIG. 5B
# Description: as §1, with “airway. Bronchoalveolar lavage was performed on the model mice of Example 1, and the numbers of various cells obtained through the bronchoalveolar lavage were compared and examined. […] The cytokine levels in the bronchoalveolar lavage fluids obtained in Example 4 were measured using an ELISA measurement kit. […] It should be noted that interferon (IFN-γ) was not detected from any of the groups. […]” for “airway.”
# [8] = tested on: RAW264.7 cells (macrophages); assay: [3H]-arachidonic acid release after hydrogen peroxide stimulus; type: cell-based; details: 5% trehalose, hydrogen peroxide for 3 hours, FIG. 6B
# Description: as §2
Structure (SMILES),airway resistance (Asthma model mice [1]),compliance (Asthma model mice [1]),"numbers of inflammation-inducing cells in bronchoalveolar lavage fluid (Total, Mo, Ly, Eo, Nt) (Asthma model mice [2])",dose dependence of suppression of the TNT-α production (TNF-α [3]; cell lysate model),"TNF-α level induced by cell lysate (TNF-α [3]; lysate homogenized in 10% aqueous trehalose vs saline, 8 hours, FIG. 7A)",TNF-α level induced by heat-shocked cell solution (TNF-α [4]),IL-1α level induced by cell lysate (IL-1α),TGF-β1 level induced by cell lysate (TGF-β1),lipid peroxides (LPO) level [5],total IgE level in serum (IgE antibody; FIG. 1A),level of IgE specific to the antigen (ovalbumin) in serum (IgE antibody; FIG. 1B),IL-13 level in bronchoalveolar lavage fluid (IL-13),cell death caused by drying stimulus (LIVE/DEAD assay) [6],prostaglandin E2 level induced by cell lysate (prostaglandin E2),PLA2 activation caused by drying stimulus (released arachidonic acid) (PLA2),"damage to alveolar epithelial cells (inflammatory cell infiltration, goblet cell hyperplasia) [7]",IL-4 level in bronchoalveolar lavage fluid (IL-4),IL-5 level in bronchoalveolar lavage fluid (IL-5),level of released arachidonic acid [8]
"OC[C@H]1O[C@@H](O[C@H]2[C@H](O)[C@@H](O)C(O)O[C@@H]2CO)[C@H](O)[C@@H](O)[C@H]1O (stereo partly shown) [lactose, reference compound]",does not have an action of suppressing an increase in the airway resistance,not different from each other,does not have an action of suppressing the release of inflammation-inducing cells,–,–,–,–,–,–,–,–,–,–,–,–,–,–,–,–
OC[C@H]1O[C@H](O[C@H]2O[C@H](CO)[C@@H](O)[C@H](O)[C@H]2O)[C@H](O)[C@@H](O)[C@@H]1O [trehalose],significantly reduced the airway resistance,significantly increased the compliance,significantly reduced cell release,depends on the dosage of trehalose,significantly reduced,significantly reduced,significantly reduced,significantly reduced,protecting cells from oxygen free radicals and hemolysate,significantly reduce the production amount of IgE,significantly reduce the production amount of IgE,significantly suppress the expression of cytokines,suppresses cell death caused by drying stimulus,significantly reduced,suppresses PLA2 activation caused by drying stimulus,suppress damage to the alveolar epithelial cells,significantly suppress the expression of cytokines,significantly suppress the expression of cytokines,protecting cells from oxygen free radicals and hemolysate
